Molecules are shown by their SMILES.

What all share (assay): Long term contact efficacy against mosquitos (example 12)
Common to all, as to assay type: in vivo
Conditions in all cases: glazed tiles, 1 day after treatment

One series deals with Aedes Aegypti. From the text: (§1) Glazed tiles have been treated with the WP 10 formulations as described in example 9 based on 4-[(5S)-5-(3,5-dichloro-4-fluorophenyl)-5-(trifluoromethyl)-4,5-dihydro-1,2-oxazol-3-yl]-N-[(4R)-2-ethyl-3-oxo-1,2-oxazolidin-4-yl]-2-methylbenzamide as described in Example 4 and then stored at ambient conditions. […] The contact bioassays have been conducted as outlined in example 9.

Another series deals with Anopheles funestus.
Description: as §1

The test system of another series is Culex quinque fasciatus.
Description: as §1

Regarding `CCN1OC[C@@H](NC(=O)c2ccc(C3=NO[C@@](c4cc(Cl)c(F)c(Cl)c4)(C(F)(F)F)C3)cc2C)C1=O` [Reference crystalline spray, 4-[(5S)-5-(3,5-dichloro-4-fluorophenyl)-5-(trifluoromethyl)-4,5-dihydro-1,2-oxazol-3-yl]-N-[(4R)-2-ethyl-3-oxo-1,2-oxazolidin-4-yl]-2-methylbenzamide], the “Mortality [%] Aedes Aegypti 24 h” value with Aedes Aegypti (0.8 mg a.i./m^2) is 0%; in the series on Aedes Aegypti (4 mg a.i./m^2) it was 89%; in the series on Aedes Aegypti (20 mg a.i./m^2), 100%. In addition, the “Mortality [%] Anopheles funestus 24 h” value is given as 0% in the series on Anopheles funestus (0.8 mg a.i./m^2), 30% in the series with Anopheles funestus (4 mg a.i./m^2) and 90% with Anopheles funestus (20 mg a.i./m^2). Besides, the “Mortality [%] Culex quinque fasciatus 24 h” value in the series with Culex quinque fasciatus (0.8 mg a.i./m^2) is on record as 25%; in the series on Culex quinque fasciatus (4 mg a.i./m^2) it was 88%; with Culex quinque fasciatus (20 mg a.i./m^2) it was 100%.

The values are drawn from patent publication US12550894B2, “Insecticidal formulation for vector and pest control with increased contact efficacy” (priority 2018, dated 2026).
